{"source": "patent US20260309621A1", "about": "“HIGH THROUGHPUT OPTICAL ASSAY FOR SCREENING HEMOGLOBIN OXYGEN AFFINITY MODIFYING DRUG” (CASE WESTERN RESERVE UNIVERSITY, priority 2023, published 2026)", "key": {"[1]": {"system": "HbAA and HbSS whole blood", "test": "pO2 reduction in whole blood by Na2S2O5 (blood gas analyzer)", "design": "species or system human", "procedure": "All samples were initially exposed to ambient air for 600 seconds. The oxygen partial pressure (pO2), 21% of atmospheric pressure (773 mmHg), was then normalized to 162 mmHg PO2 during oxygenation (FIG. 7A). Sodium metabisulphite (Na2S2O5) was used to deoxygenate the samples chemically (FIG. 7B). Predetermined amounts of sodium metabisulphite were mixed with 2 ml of the prepared samples for 90 seconds using a vortexer (Scientific Industries, Bohemia, NY). The concentrations of Na2S2O5 used with purified hemoglobin were 0.039 M, 0.046 M, 0.053 M, 0.059 M, 0.066 M, 0.079 M, and 0.082 M, which corresponded to a gradual reduction in the oxygen partial pressure in the samples. For whole blood and RBC analyses, we used 0.053 M of Na2S2O (17-fold more molecules than Hb molecules in solution) to achieve partial deoxygenation (Table 1). A blood gas analyzer (Nova Starter Pro, Nova BioMed, Boston, Massachusetts) was used to confirm the deoxygenation levels at those Na2S2O5 concentrations.\nWe used sodium metabisulphite (Na2S2O5) to deoxygenate purified hemoglobin, intact RBCs, or whole blood (FIGS. 7A & B). […] At elevated concentrations of Na2S2O5, corresponding to high levels of deoxygenation or pO2 close to 30 mmHg, the curve plateaus (FIG. 8)."}, "HbSS patient whole blood": {"system": "HbSS patient whole blood", "test": "Peak wavelength shift of whole blood from SCD patients stratified by treatment", "design": "species or system human", "procedure": "Blood samples were collected from healthy donors and individuals with SCD as part of standard clinical care. We received ethical approval from the University Hospitals of Cleveland Medical Center's Institutional Review Board (IRB) and Joint Clinical Research Ethics Committee in Kampala, Uganda, for the Naïve SCD group. All participants in the study provided written informed consent. When collected, blood samples were de-identified, kept at 4 degrees Celsius, and processed within 6 hours of receipt. […] Hemoglobin profiles of samples were verified using the reference standard high performance liquid chromatography (HPLC, VARIANT™ II, Bio-Rad Laboratories, Inc., Hercules, California). […] Intracellular hemoglobin concentration for all blood samples was measured under normoxia with complete blood count (CBC, Hemavet 950FS, Hematology System, Draw Scientific Inc.; Miami, Florida).\nDuring testing with either oxygenation or deoxygenation, samples were analyzed in three microplate wells using a spectroscopy microplate reader Spectramax M2e (Molecular Devices, San Jose, CA), over a spectral range of 350-750 nm, with a wavelength resolution of 2 nm and at a customized microplate well reading setting at room temperature. […] (3) For each sample and at concentration of 0.053 M Na2S2O5, the bathochromic wavelength shift and intensity were assessed for further analysis (FIG. 7D). […]"}, "HbSS": {"biological_target": "T1, HbSS (Homo sapiens, UniProt P68871+P69905, E7V)", "T1 construct": "whole blood, washed red cells or purified hemoglobin", "test": "96-well high throughput optical absorption assay: Soret band peak wavelength shift of deoxygenated SCD samples treated with oxygen modifying molecules", "format": "biochemical", "description": "FIGS. 3(A-C) illustrate varying concentration of voxelotor tested using 96 well plates optical assay. (A) Representative 96 well plate, showing the arrangement of a single sample analyzed. […] (B) Insert from the 12 columns of the 96 well plate, showing the Soret band peak wavelength shift in the wavelength range of 380-450 nm.\nFIGS. 4(A-B) illustrate increasing the concentration of voxelotor induces a decrease in the peak wavelength of SCD samples (A) Insert from the 12 columns of the 96 well plate, showing the Soret band peak wavelength shift in the wavelength range of 380-450 nm.\nFIGS. 5(A-B) illustrate varying concentration of PKR activator tested using 96 well plates optical assay. (A) Insert from the 12 columns of the 96 well plate, showing the Soret band peak wavelength shift in the wavelength range of 380-450 nm.\nFIGS. 6(A-B) illustrate varying concentrations of aptamer induce peak wavelength shift. (A) Soret band peak wavelength shifts for oxygenated blood with aptamer deoxygenated blood with aptamer, untreated blood, and voxelotor treatment were compared in the wavelength range of 350-450. Increasing the concentration of aptamer from 0.2 dosages (B) Increasing the concentration of aptamer from 0.2 dosages to 0.25 induces a reduction in peak wavelength from 416 nm to 414 nm.\nThis example relates to a 96-well high throughput assay optical absorption spectroscopic assay that can be used to assess the rate of oxygen release from hemoglobin.\nWhole blood, purified hemoglobin, or washed red blood cells (RBCs) are mixed with a buffer solution at 6.8 or 8. Additional hemoglobin or RBCs to an acidic buffer changes the molecular conformational structure of hemoglobin. Determined volume of the analyte (including but not limited to whole blood, purified hemoglobin, or red blood cells (RBCs)) are mixed with buffer are added to each of the 12/96/384 well plates. The analytes are then chemically deoxygenated with a determined concentration of sodium metabisulphite an approach to deplete oxygen from hemoglobin molecules. The solution is analyzed using a spectroscopic microplate reader. […]"}, "hemoglobin (HbAA, HbSS)": {"system": "hemoglobin (HbAA, HbSS)", "test": "Hemoglobin-oxygen dissociation assay (Soret band bathochromic shift with partial chemical deoxygenation by Na2S2O5)", "format": "biochemical, human", "conditions": "for Peak wavelength: pH 6.9, pO2 = 75 mmHg, mean ± SEM; for peak wavelength, repeatability: ~20 mmHg pO2, mean ± SEM", "description": "Herein, we take advantage of the unique optical shift of Hb's Soret band and combine it with partial chemical deoxygenation to optically measure Hb-O2 dissociation under physiologically acidic conditions at pH 6.9.\nBlood samples were collected from healthy donors and individuals with SCD as part of standard clinical care. We received ethical approval from the University Hospitals of Cleveland Medical Center's Institutional Review Board (IRB) and Joint Clinical Research Ethics Committee in Kampala, Uganda, for the Naïve SCD group. All participants in the study provided written informed consent. When collected, blood samples were de-identified, kept at 4 degrees Celsius, and processed within 6 hours of receipt. […] Hemoglobin profiles of samples were verified using the reference standard high performance liquid chromatography (HPLC, VARIANT™ II, Bio-Rad Laboratories, Inc., Hercules, California). The results were presented as a percentage of HbS, A2, and F; the remainder was considered HbA since the values were normalized to 100%. Intracellular hemoglobin concentration for all blood samples was measured under normoxia with complete blood count (CBC, Hemavet 950FS, Hematology System, Draw Scientific Inc.; Miami, Florida).\nThree independent sample preparations were performed to test different hypotheses. (1) Whole blood, (2) isolated intact red blood cells (RBC), and (3) purified hemoglobin (lysed samples).\nFor whole blood preparation, 75 μl of whole blood was mixed with pH 6.9 buffers at a ratio of 1:300 and incubated for 10 minutes at room temperature before deoxygenation.\nFor intact RBC sample preparation, whole blood was centrifuged at 500 g for 10 minutes in a microcentrifuge (model 21r; Thermo Scientific, Waltham, MA). The plasma and buffy coat were removed via aspiration. The RBCs were washed thrice with phosphate-buffered saline (PBS) at pH 7.4 (Gibco, Thermo Scientific, Waltham, MA). Next, 45 μL of the washed RBC suspension was diluted with a pH 6.9 buffer solution until the baseline hematocrit of 0.2% was achieved. Before deoxygenation, RBCs were incubated for 10 minutes in a pH 6.9 buffer solution at room temperature.\nFor purified hemoglobin preparation; lysed samples were prepared. Hemolysis was carried out by sonication for 30 seconds (Hemex Health; Portland, OR). Following hemolysis, the lysed cell suspension was added to various pH buffer solutions and centrifuged at 2000 g for 1 hour. Three hundred μl of the cell lysate was removed, and the supernatant was dis-carded. Cell lysates were diluted in 700 μl of the specific pH buffer solution and centrifuged at 2000 g for 1 hour. The 1 ml of pH buffer solution and cell lysate were filtered through a 0.02 μm Millipore membrane. The hemoglobin concentration in the lysed sample was determined using the hemoglobin [COMPOUND LEFT OUT] (HiCN) method and measured with a cuvette spectrophotometer at 540 nm. Each purified lysed sample was diluted with different pH solutions (pH 6.9, 7.2, 7.4, 8.0, and 10.0) to achieve a hemoglobin concentration of 2.8 mg dl^−1, determined as the baseline for lysed sample analysis."}, "purified hemoglobin": {"system": "purified hemoglobin", "test": "Circular dichroism spectra of purified hemoglobin at pH 6.9", "format": "physicochemical, human", "conditions": "purified Hb, pH 6.9, 75 mmHg, deoxy", "description": "The circular dichroism (CD) spectra, like the absorption spectra in the Soret and visible range, reveal the molecular structure of the hemoglobin globin and heme groups. […] CD spectra were collected between 190 and 650 nm wavelength on a Jasco J-1500 Spectropolarimeter with a 1 mm quartz cuvette and a scan rate of 4 seconds. The recorded spectra were background subtracted, accounting for a pH 6.9 buffer. The data was baselined and smoothed in the Spectra Manager software (Release 2018; Version 2.15.01)."}}}
{"molecule": "O=S([O-])S(=O)(=O)[O-].[Na+].[Na+]", "note": "[Na2S2O5, sodium metabisulfite]", "values": [{"measurement": "pO2 in whole blood with increased Na2S2O5 concentration", "setting": "[1]; 0-0.08 M Na2S2O5, 4 minutes, pH 6.9, 7.2, 7.4, 8.0, HbAA and HbSS, n=5, FIG. 8", "result": "20-40 mmHg"}, {"measurement": "deoxygenation of hemoglobin", "setting": "[1]; 0.053 M Na2S2O5", "result": "partial deoxygenation of hemoglobin"}, {"measurement": "pO2 of deoxygenated samples", "setting": "[1]; 0.053 M Na2S2O5", "result": 75, "unit": "mmHg"}, {"measurement": "min. pO2 in HbSS whole blood", "setting": "[1]; 0.053 M Na2S2O5, FIG. 8B", "result": "around 10 mmHg"}]}
{"molecule": "NC(=O)NO", "note": "[hydroxyurea]", "values": [{"measurement": "peak wavelength shift differences, oxygenated samples", "setting": "HbSS patient whole blood; Hu HbSS, oxygenated, FIG. 11C", "result": "No significant differences"}, {"measurement": "bathochromic shift differences between HbAA, HbAS and HbSS stratified by treatment", "setting": "HbSS patient whole blood; hydroxyurea (Hu HbSS=15), deoxygenated 75 mmHg, pH 6.9, FIG. 11C", "result": "significant differences"}]}
{"molecule": "CC(C)n1nccc1-c1ncccc1COc1cccc(O)c1C=O", "note": "[voxelotor]", "values": [{"measurement": "difference in peak wavelength shift between deoxy HbSS and deoxy HbSS+Vox", "setting": "HbSS; 63, 118, 211 and 421 μM Vox, Mann-Whitney, FIG. 4", "result": "Significate differences"}, {"measurement": "peak wavelength shift of treated SCD samples compared to untreated SCD samples", "setting": "HbSS; voxelotor, 3 hours incubation, varying concentrations", "result": "reduced peak wavelength shift"}, {"measurement": "effect of increasing concentration on oxygen affinity of HbSS", "setting": "HbSS; voxelotor, reduction in peak wavelength shift to that of HbAA, FIG. 4", "result": "increases the oxygen affinity of HbSS"}]}
{"molecule": "HbAA: healthy hemoglobin", "values": [{"measurement": "peak wavelength, fully oxygenated", "setting": "hemoglobin (HbAA, HbSS); 162 mmHg pO2, all pH values", "result": 414, "unit": "nm"}, {"measurement": "Peak wavelength", "setting": "hemoglobin (HbAA, HbSS); RBCs", "result": "418.0 ± 0.56 (n = 15)"}, {"measurement": "peak wavelength, repeatability", "setting": "hemoglobin (HbAA, HbSS); User1, whole blood", "result": "414.9±0.11"}, {"measurement": "peak wavelength, repeatability", "setting": "hemoglobin (HbAA, HbSS); User2, whole blood", "result": "415.1±0.05"}, {"measurement": "Peak wavelength", "setting": "hemoglobin (HbAA, HbSS); purified hemoglobin", "result": "417.2 ± 0.78 (n = 23)"}, {"measurement": "area under the peak", "setting": "hemoglobin (HbAA, HbSS); whole blood, FIG. 10I, pH 6.9, 75 mmHg pO2", "result": "37.2±0.8"}, {"measurement": "FWHM", "setting": "hemoglobin (HbAA, HbSS); whole blood, FIG. 10J, pH 6.9, 75 mmHg pO2", "result": "24.3±0.82"}, {"measurement": "Peak wavelength", "setting": "hemoglobin (HbAA, HbSS); whole blood", "result": "415.3 ± 0.23 (n = 15)"}, {"measurement": "CD Soret peak, partially deoxygenated", "setting": "purified hemoglobin", "result": 425, "unit": "nm"}]}
{"molecule": "purified Hb: purified hemoglobin (lysed samples)", "values": [{"measurement": "peak wavelength of purified Hb with increasing Hb concentration", "setting": "hemoglobin (HbAA, HbSS); purified Hb 0.3-11.2 mg/dl, FIG. 13", "result": "420±0.2"}]}
